Source: the NIST ThermoML archive (doi:10.1021/je301301j)

Assay: xn = mol fraction of the nth substance listed
Conditions: Liquid; for mass density: Vibrating tube method; for viscosity: Concentric cylinders viscometry

C=CCCCC [hex-1-ene] + CCCCO
Conditions	mass density, 273.15 K [kg/m3]	mass density, 293.15 K [kg/m3]	mass density, 313.15 K [kg/m3]	mass density, 333.15 K [kg/m3]	viscosity, 293.15 K [mPa·s]	viscosity, 303.15 K [mPa·s]	viscosity, 313.15 K [mPa·s]
100 kPa, x1 = 0.1001	808.1	792.4	776.5	759.7	–	–	–
100 kPa, x1 = 0.3999	764.1	747	729.5	711.1	–	–	–
100 kPa, x1 = 0.5018	751.4	734	716	697.2	–	–	–
100 kPa, x1 = 0.5997	739	721.2	702.9	683.7	–	–	–
100 kPa, x1 = 0.9	700.4	681.8	662.7	642.8	–	–	–
100 kPa, x1 = 1	691.5	672.8	653.8	634	–	–	–
100 kPa, x2 = 0	–	–	–	–	0.28	0.257	0.236
100 kPa, x2 = 0.1001	–	–	–	–	0.316	0.283	0.255
100 kPa, x2 = 0.2	–	–	–	–	0.355	0.316	0.285
100 kPa, x2 = 0.3002	–	–	–	–	0.422	0.369	0.322
100 kPa, x2 = 0.3999	–	–	–	–	0.522	0.448	0.386
100 kPa, x2 = 0.5018	–	–	–	–	0.669	0.565	0.475
100 kPa, x2 = 0.5997	–	–	–	–	0.86	0.703	0.595
100 kPa, x2 = 0.7002	–	–	–	–	1.159	0.938	0.763
100 kPa, x2 = 0.7999	–	–	–	–	1.558	1.24	0.997
100 kPa, x2 = 0.9	–	–	–	–	2.125	1.667	1.327
1000 kPa, x1 = 0.1001	808.5	793.1	777.2	760.6	–	–	–
1000 kPa, x1 = 0.3999	764.6	747.7	730.4	712.2	–	–	–
1000 kPa, x1 = 0.5018	751.9	734.8	716.9	698.3	–	–	–
1000 kPa, x1 = 0.5997	739.5	722	703.9	684.9	–	–	–
1000 kPa, x1 = 0.9	701	682.7	663.9	644.1	–	–	–
1000 kPa, x1 = 1	692.1	673.8	654.9	635.4	–	–	–
2000 kPa, x1 = 0.1001	809.3	793.8	778.1	761.6	–	–	–
2000 kPa, x1 = 0.3999	765.4	748.6	731.4	713.4	–	–	–
2000 kPa, x1 = 0.5018	752.7	735.7	718	699.6	–	–	–
2000 kPa, x1 = 0.5997	740.4	723	705	686.3	–	–	–
2000 kPa, x1 = 0.9	701.9	683.8	665.1	645.6	–	–	–
2000 kPa, x1 = 1	693	674.9	656.2	636.9	–	–	–
5000 kPa, x1 = 0.1001	811.3	796.2	780.6	764.5	–	–	–
5000 kPa, x1 = 0.3999	767.7	751.2	734.3	716.8	–	–	–
5000 kPa, x1 = 0.5018	755.1	738.4	721.1	703.1	–	–	–
5000 kPa, x1 = 0.5997	742.8	725.8	708.2	690	–	–	–
5000 kPa, x1 = 0.9	704.6	686.9	668.7	649.9	–	–	–
5000 kPa, x1 = 1	695.8	678	659.9	641.3	–	–	–
10000 kPa, x1 = 0.1001	814.6	799.7	784.6	768.9	–	–	–
10000 kPa, x1 = 0.3999	771.4	755.3	739	722	–	–	–
10000 kPa, x1 = 0.5018	758.9	742.7	725.9	708.6	–	–	–
10000 kPa, x1 = 0.5997	746.7	730.2	713.2	695.7	–	–	–
10000 kPa, x1 = 0.9	708.8	691.7	674.2	656.3	–	–	–
10000 kPa, x1 = 1	700	682.9	665.5	647.8	–	–	–
15000 kPa, x1 = 0.1001	817.8	803.2	788.4	773.1	–	–	–
15000 kPa, x1 = 0.3999	774.9	759.2	743.3	727.1	–	–	–
15000 kPa, x1 = 0.5018	762.5	746.7	730.5	713.8	–	–	–
15000 kPa, x1 = 0.5997	750.4	734.4	718	701.1	–	–	–
15000 kPa, x1 = 0.9	712.8	696.2	679.5	662.2	–	–	–
15000 kPa, x1 = 1	704	687.5	670.8	653.9	–	–	–
20000 kPa, x1 = 0.1001	820.8	806.5	792.1	777.2	–	–	–
20000 kPa, x1 = 0.3999	778.2	762.9	747.5	731.6	–	–	–
20000 kPa, x1 = 0.5018	766	750.5	734.8	718.7	–	–	–
20000 kPa, x1 = 0.5997	754	738.3	722.4	706.1	–	–	–
20000 kPa, x1 = 0.9	716.5	700.4	684.2	667.8	–	–	–
20000 kPa, x1 = 1	707.8	691.8	675.7	659.5	–	–	–
30000 kPa, x1 = 0.1001	826.5	812.8	799	784.7	–	–	–
30000 kPa, x1 = 0.3999	784.4	769.9	755.2	740.3	–	–	–
30000 kPa, x1 = 0.5018	772.4	757.7	742.7	728.5	–	–	–
30000 kPa, x1 = 0.5997	760.6	745.7	730.6	715.4	–	–	–
30000 kPa, x1 = 0.9	723.6	708.3	693.1	677.7	–	–	–
30000 kPa, x1 = 1	715	699.8	684.6	669.5	–	–	–
40000 kPa, x1 = 0.1001	831.9	818.6	805.3	791.6	–	–	–
40000 kPa, x1 = 0.3999	790.2	776.3	762.2	748	–	–	–
40000 kPa, x1 = 0.5018	778.4	764.2	749.9	736.5	–	–	–
40000 kPa, x1 = 0.5997	766.8	752.4	738	723.5	–	–	–
40000 kPa, x1 = 0.9	730.1	715.5	700.9	686.5	–	–	–
40000 kPa, x1 = 1	721.6	707	692.6	678.4	–	–	–
50000 kPa, x1 = 0.1001	837	824.1	811.1	798	–	–	–
50000 kPa, x1 = 0.3999	795.7	782.2	768.7	755.2	–	–	–
50000 kPa, x1 = 0.5018	783.9	770.2	756.5	743.8	–	–	–
50000 kPa, x1 = 0.5997	772.3	758.6	744.7	731	–	–	–
50000 kPa, x1 = 0.9	736.1	722.1	708.2	694.4	–	–	–
50000 kPa, x1 = 1	727.6	713.7	699.9	686.3	–	–	–
60000 kPa, x1 = 1	733.2	719.9	706.9	693.7	–	–	–
70000 kPa, x1 = 1	738.7	725.8	713	700.5	–	–	–
